Like-named read-outs stand apart in the source and are kept apart here.

21 compounds from patent publication US20230002324A1, “NAPHTHOQUINONE DERIVATIVES FOR TREATMENT OF OXIDATIVE STRESS DISORDERS” (PTC THERAPEUTICS, INC., priority 2019, published 2023) can be followed below.

Common to all, as to assay type: cell-based
Assay [1] relates to normal human fibroblasts (NHF, GM21811). Briefly: NHF GM21811 RSL3 challenge cell survival (rescue) assay. The conditions noted are these: Fibroblast, 48 h, read-out: NHF GM21811 RSL3 Survival EC50. From the text: (§1) In neuronal cells excess extracellular glutamate inhibits the cystine/glutamate antiporter leading to intracellular cysteine depletion, GSH depletion, reactive oxygen species (ROS) production and cell death, a phenomenon termed oxidative glutamate toxicity, oxytosis, or ferroptosis. […] Q7 cells (ST HDH Q7/7; immortalized mouse striatal cells) challenged with cystine-free media or the selective, irreversible GPX4 inhibitor, methyl (1S,3R)-2-(2-chloroacetyl)-1-(4-(methoxycarbonyl)phenyl)-2,3,4,9-tetrahydro-1H-pyrido[3,4-b]indole-3-carboxylate (hereafter referred to as RSL3), recapitulate this phenotype, as do normal human fibroblasts (NHF) challenged with RSL3. An initial screen was performed to identify compounds effective in rescuing Q7 and/or NHF cells from death resulting from cystine deprivation or RSL3 challenge. This method is further described in Yonezawa et al., J. Neurochem 67, 566-573 (1996), Li et al., J Neurosci., 23, 5816-5826 (2003), Yang and Stockwell, Chem Biol., 15: 234-45 (2008), and Yang et al., Cell 156, 317-331 (2014). See also Hinman A, Holst C R, Latham J C, et al. Vitamin E hydroquinone is an endogenous regulator of ferroptosis via redox control of 15-lipoxygenase. PLoS One. 2018; 13(8):e0201369. Published 2018 Aug. 15. doi:10.1371/journal.pone.0201369; and Kahn-Kirby A H, Amagata A, Maeder C I, et al. Targeting ferroptosis: A novel therapeutic strategy for the treatment of mitochondrial disease-related epilepsy. PLoS One. 2019; 14(3):e0214250. Published 2019 Mar. 28. doi:10.1371/journal.pone.0214250.
(§2) DMEM (Catalog no. 11995-040), DMEM without Cystine (Catalog no. 21013-024), DMEM without Glucose (Catalog A1443001), PBS (Phosphate buffered saline), Penicillin-streptomycin mix, L-Glutamine, Glucose, Phenol Red, and Pyruvate were purchased from ThermoFisher Scientific (Gibco). Fetal Bovine Serum was obtained from Mediatech, Inc., or Sigma Aldrich. Mouse striatum derived ST HDH Q7/7 (Q7) and normal human skin fibroblast (NHF, product number GM21811) cells were obtained from the Coriell Institute. Methionine and Vitamin K2 were purchased from Sigma Aldrich. RSL3 was synthesized as previously described (see e.g. US Patent Publication US2010/0081654). Cell Titer Glo 2.0 was purchased from Promega. Q7 cell culture medium (Q7 growth medium) was made by combining 50 mL Fetal Bovine Serum, 100 U/mL penicillin, and 100 microgram/mL streptomycin; DMEM was added to make the volume up to 500 mL. Assay medium for the Cystine Deprivation assay was prepared by combining 50 mL Fetal Bovine Serum, 100 U/mL penicillin, 100 microgram/mL streptomycin, 4 mM L-Glutamine, 1 mM Pyruvate and 30 mg/L Methionine; DMEM without Cystine was added to make the volume up to 500 mL. NHF cell culture medium (NHF growth medium) was made by combining 50 mL Fetal Bovine Serum, 100 U/mL penicillin, 100 microgram/mL streptomycin, 2.8 mL 20% Glucose solution (final concentration 6 mM), L-glutamine (final concentration 2 mM), phenol red (final concentration 15 mg/L); DMEM without Glucose was added to make the volume up to 500 mL. Assay medium for the RSL3 challenge assay was identical to Growth medium. While not in use during the course of the experiments, these solutions were stored at 4° C. The cells were grown in 150-cm^2 tissue culture-treated flasks. Every third or fourth day, the cells were sub-cultured by trypsinization and re-seeded at a cell density of 600,000 (Q7) or 300,000 (NHF) cells per flask.
(§3) Q7 or NHF cells were cultured routinely as described herein. For 384-well cell survival assays, cells were seeded in clear bottom, black wall 384-well tissue culture-treated polystyrene plates by re-suspending a cell suspension at a density of 50,000 cells/mL in growth medium, then dispensing 60 microliters of cell suspension per well using either an electronic multichannel pipette or a Multidrop™ Combi Reagent Dispenser (ThermoFisher Scientific), corresponding to 3,000 cells/well. […]

For assay [2], the system named is Q7 cells (ST HDH Q7/7; immortalized mouse striatal cells). Kind of assay: Q7 RSL3 challenge cell survival (rescue) assay. The conditions noted are these: 18 h, read-out: Q7 RSL3 Survival EC50.
Text: as §1, §2, §3

The test system is the same in assay [3]. Kind of assay: Q7 Cystine Deprivation cell survival (rescue) assay. The conditions noted are these: 18 h, read-out: Q7 Cystine Deprivation Survival EC50. The method in brief: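 Cells were seeded at 3,000/well and allowed to attach for 5 h at 33 °C. Wells were then washed twice with PBS and switched to cystine-free DMEM containing FBS, 4 mM L-glutamine, 1 mM pyruvate and 30 mg/L methionine to induce ferroptotic death. Compounds were scored for survival rescue.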

The mark [4] stands for this setting: NHF cells, RSL3 2 micromolar, Cell Titer Glo.
Setting [5] is: Q7 cells, RSL3 2 micromolar, Cell Titer Glo.
Where [6] appears, read: Q7 cells, cystine-free medium, Cell Titer Glo, 50% relative viability vs Vitamin K2 (1 micromolar).

The EC50 is the concentration that produces a half-maximal response. `CCC1=C(Cc2ccc(C(F)(F)F)cn2)C(=O)c2cc(F)cc(F)c2C1=O` [Example 56, 3-ethyl-5,7-difluoro-2-((5-(trifluoromethyl)pyridin-2-yl)methyl)naphthalene-1,4-dione]: the EC50 in assay [1] and in assay [2] was < 50 nM each time.
For `CC1=C(Cc2ccc(C(F)(F)F)c(C#N)n2)C(=O)c2c(F)cc(F)cc2C1=O` [Example 75, 6-((6,8-difluoro-3-methyl-1,4-dioxo-1,4-dihydronaphthalen-2-yl)methyl)-3-(trifluoromethyl)picolinonitrile], the EC50 in assay [1] (setting [4]) and in assay [2] (setting [5]) was < 50 nM throughout.
On to `CCCC1=C(Cc2ccc(C(F)(F)F)c(C#N)n2)C(=O)c2ccccc2C1=O` [Example 114, 6-((1,4-dioxo-3-propyl-1,4-dihydronaphthalen-2-yl)methyl)-3-(trifluoromethyl)picolinonitrile], for which the EC50 in assay [2] (setting [5]) and in assay [3] (setting [6]) was < 50 nM each time.
`CC1=C(Cc2ccc(C(F)(F)F)c(C#N)n2)C(=O)c2ccccc2C1=O` [Example 77, 6-((3-methyl-1,4-dioxo-1,4-dihydronaphthalen-2-yl)methyl)-3-(trifluoromethyl)picolinonitrile]: the EC50 in assay [1] (setting [4]) and in assay [2] (setting [5]) was < 50 nM in each case.
For `CC1=C(Cc2ccc(C(F)(F)F)cn2)C(=O)c2cccc(Cl)c2C1=O` [Example 60, 5-chloro-3-methyl-2-[[5-(trifluoromethyl)-2-pyridyl]methyl]naphthalene-1,4-dione], the EC50 in assay [1] (setting [4]) and in assay [2] (setting [5]) was < 50 nM each time.
On to `CCC1=C(Cc2ccc(F)cn2)C(=O)c2c(F)ccc(F)c2C1=O` [Example 88, 2-ethyl-5,8-difluoro-3-((5-fluoropyridin-2-yl)methyl)naphthalene-1,4-dione], for which the EC50 in assay [1] (setting [4]) and in assay [2] (setting [5]) was < 50 nM in each case.
With `CCCC1=C(Cc2ccc(C(F)(F)F)c(C#N)n2)C(=O)c2cc(F)cc(F)c2C1=O` [Example 82, 6-((5,7-difluoro-1,4-dioxo-3-propyl-1,4-dihydronaphthalen-2-yl)methyl)-3-(trifluoromethyl)picolinonitrile], the EC50 in assay [1] (setting [4]) and in assay [2] (setting [5]) was < 50 nM in each case.
Regarding `CC1=C(Cc2ccc(C(F)(F)F)cn2)C(=O)c2cc(F)cc(F)c2C1=O` [Example 49, 5,7-difluoro-3-methyl-2-((5-(trifluoromethyl)pyridin-2-yl)methyl)naphthalene-1,4-dione], the EC50 in assay [2] (setting [5]) and in assay [3] (setting [6]) was < 50 nM throughout.
Take `CC1=C(Cc2ccc(C(F)(F)F)cn2)C(=O)c2c(F)cc(F)cc2C1=O` [Example 50, 5,7-difluoro-2-methyl-3-((5-(trifluoromethyl)pyridin-2-yl)methyl)naphthalene-1,4-dione]: the concentration giving a half-maximal response (EC50) in assay [2] (setting [5]) and in assay [3] (setting [6]) was < 50 nM throughout.
Consider `[2H]C([2H])(C1=C(C)C(=O)c2ccccc2C1=O)c1ccc(C(F)(F)F)cn1` [Example 21, 2-methyl-3-((5-(trifluoromethyl)pyridin-2-yl)methyl-d2)naphthalene-1,4-dione], for which the EC50 in assay [1] (setting [4]) and in assay [2] (setting [5]) was < 50 nM in each case.
Turning to `[2H]C([2H])([2H])C1=C(Cc2ccc(C(F)(F)F)c(C#N)n2)C(=O)c2ccc(F)cc2C1=O` [Example 73, 6-((6-fluoro-3-(methyl-d3)-1,4-dioxo-1,4-dihydronaphthalen-2-yl)methyl)-3-(trifluoromethyl)picolinonitrile], the EC50 in assay [1] (setting [4]) and in assay [2] (setting [5]) was < 50 nM each time.
As for `CC1=C(Cc2ccc(C(F)(F)F)c(C#N)n2)C(=O)c2cc(F)cc(F)c2C1=O` [Example 74, 6-((5,7-difluoro-3-methyl-1,4-dioxo-1,4-dihydronaphthalen-2-yl)methyl)-3-(trifluoromethyl)picolinonitrile], the EC50 in assay [1] (setting [4]) is < 50 nM; in assay [2] (setting [5]), 50 to 250 nM.
Turning to `Cc1c(Cc2ccc(C(F)(F)F)cn2)c(O)c2ccccc2c1O` [Example 131, 2-methyl-3-((5-(trifluoromethyl)pyridin-2-yl)methyl)naphthalene-1,4-diol], the EC50 in assay [2] and in assay [3] was < 50 nM each time.
Consider `CC1=C(Cc2ccc(C(F)(F)F)cn2)C(=O)c2cc(C)c(C)cc2C1=O` [Example 43, 2,6,7-trimethyl-3-((5-(trifluoromethyl)pyridin-2-yl)methyl)naphthalene-1,4-dione], for which the EC50 in assay [2] (setting [5]) lay in the range of 250 to 1000 nM; in assay [3] (setting [6]), 50 to 250 nM.
`[2H]C([2H])([2H])C1=C(Cc2ccc(C(F)(F)F)c(C#N)n2)C(=O)c2cc(F)cc(F)c2C1=O` [Example 71, 6-((5,7-difluoro-3-(methyl-d3)-1,4-dioxo-1,4-dihydronaphthalen-2-yl)methyl)-3-(trifluoromethyl)picolinonitrile]: the EC50 in assay [1] (setting [4]) and in assay [2] (setting [5]) was < 50 nM in each case.
For `CC1=C(Cc2ccc(C(F)(F)F)cn2)C(=O)c2cc(C(F)(F)F)ccc2C1=O` [Example 53, 2-methyl-6-(trifluoromethyl)-3-((5-(trifluoromethyl)pyridin-2-yl)methyl)naphthalene-1,4-dione], the EC50 in assay [2] (setting [5]) and in assay [3] (setting [6]) was 50 to 250 nM throughout.
In the case of `[2H]C([2H])([2H])C1=C(Cc2ccc(C(F)(F)F)cn2)C(=O)c2ccccc2C1=O` [Example 54, 2-(methyl-d3)-3-((5-(trifluoromethyl)pyridin-2-yl)methyl)naphthalene-1,4-dione], the EC50 in assay [2] (setting [5]) and in assay [3] (setting [6]) was < 50 nM in each case.
With `O=C1C(Cc2ccc(F)cn2)=C(C2CC2)C(=O)c2c(F)ccc(F)c21` [Example 87, 2-cyclopropyl-5,8-difluoro-3-((5-fluoropyridin-2-yl)methyl)naphthalene-1,4-dione], the EC50 in assay [1] (setting [4]) and in assay [2] (setting [5]) was < 50 nM throughout.
As for `[2H]C([2H])([2H])C1=C(Cc2ccc(C(F)(F)F)c(C#N)n2)C(=O)c2c(F)ccc(F)c2C1=O` [Example 76, 6-((5,8-difluoro-3-(methyl-d3)-1,4-dioxo-1,4-dihydronaphthalen-2-yl)methyl)-3-(trifluoromethyl)picolinonitrile], the EC50 in assay [1] (setting [4]) and in assay [2] (setting [5]) was < 50 nM throughout.
As for `CC1=C(Cc2ccc(F)cn2)C(=O)c2cc(F)ccc2C1=O` [Example 47, 6-fluoro-3-((5-fluoropyridin-2-yl)methyl)-2-methylnaphthalene-1,4-dione], the EC50 in assay [2] (setting [5]) and in assay [3] (setting [6]) was < 50 nM in each case.
As for `[2H]C([2H])([2H])C1=C(Cc2ccc(C(F)(F)F)c(C#N)n2)C(=O)c2c(F)cc(F)cc2C1=O` [Example 72, 6-((6,8-difluoro-3-(methyl-d3)-1,4-dioxo-1,4-dihydronaphthalen-2-yl)methyl)-3-(trifluoromethyl)picolinonitrile], the 50% effective concentration (EC50) in assay [1] (setting [4]) and in assay [2] (setting [5]) was < 50 nM each time.
